Test results taken from patent US12636368B2, “Ionizable lipids for nucleic acid delivery” (Global Life Sciences Solutions Canada ULC, priority 2019, dated 2026).
Where two headings read alike, the source gives them in different places.

How the values were obtained:
[1] = TNS assay, surface pKa of lipid nanoparticles; format: physicochemical
Description: In embodiments of the invention, the experimental pKa of formulated lipid nanoparticles comprising lipids in Table 1 is calculated using the 2-(p-toluidinyl)naphthalene-6-sulfonic acid (TNS) assay. The procedure for the TNS assay is described in Example 25.
The pKa of each cationic lipid was determined in lipid nanoparticles using an assay based on fluorescence of 6-(p-Toluidino)-2-naphthalenesulfonic acid sodium salt (TNS, Sigma Aldrich), which is a fluorescent probe for the conformational state of proteins5. Empty lipid nanoparticles comprising ionizable lipid in LM02 composition in distilled water at a concentration of 3.125 mM total lipid are formulated using NanoAssemblr® Spark™, and were then was characterized for LNP quality on the Zetasizer™ using a 30× dilution with 1×PBS in the low volume cuvette. Lipid nanoparticles were further diluted 4× using distilled water to 0.781 mM total lipid. TNS was prepared as a 25 μM stock solution in distilled water. Then 6.4 μL of diluted LNP samples of 0.781 mM total lipid were mixed with 10 μL of diluted TNS to a final volume of 250 μL with buffer containing 10 mM HEPES, 10 mM MES, 10 mM NH4OAc and 130 mM NaCl where the pH ranged from 3 to 9 in 0.5 pH increments.
Samples were mixed thoroughly, and the fluorescence intensity was measured at room temperature in a BioTek™ Synergy™ H1 Hybrid Multi-Mode Monochromator™ Fluorescence Microplate Reader using excitation and emission wavelengths of 321 nm and 445 nm respectively. A sigmoidal best fit analysis was applied to the fluorescence data using GraphPad Prism™ software, and the pKa was measured as the pH at half-maximal fluorescence intensity.

[2] = test system: isolated primary human T cells; test: GFP mRNA-LNP transfection of primary human T cells, flow cytometry; format: cell-based; conditions: for GFP Protein expression score: Human T cell: Table 8, star score, legend not given
Description: Reagents were from Stemcell Technologies unless otherwise stated. Tcells were isolated from a single donor. At 48 h following lipid particle mRNA exposure, the treated T cells were harvested by transferring the cell suspensions to pre-labeled 1.5 mL tubes and centrifuged 300×g at 4 degrees C. for 10 minutes. Supernatant was removed and the pellet resuspended in PBS. An amount of 0.5 ul of BD Horizon™ Fixable Viability Stain 575V™ (BD Biosciences), was added, and the mixture incubated in the dark for 10 minutes at RT. This stain binds to amines.
The cells were centrifuged again as before, then washed twice with 1 mL of stain buffer (BSA, BD Pharminigen), and the washed pellet was diluted in 100 μl BSA. The following antibodies were added to each tube of treated cells in 2 μl volumes: CD25, CD8, CD4, (PerCP-Cy™ 5.5 Mouse Anti Human CD25, BV786 Mouse Anti-Human CD8 Clone RPA-T8, APC-Cy™7 Mouse Anti-Human CD4 Clone SK3 (all from BD Pharmingen) with the exception of the controls: in the eGFP only sample and viability control, no antibody was added. In the single stain compensation tubes, only one antibody per tube was added.
The tubes were incubated at 4 degrees C. for 30 min, whereupon […] of stain buffer was added, and the cells were centrifuged again. Cells were washed once with 1 mL of stain buffer and spun down again as in step one. Cell pellets were resuspended in 1 mL of stain buffer and added to pre-labeled flow tubes with cell strainer caps (Corning Falcon). […]
GFP MFI was measured by flow cytometry 48 hours after LNP addition. T cells were isolated from whole blood using a negative isolation procedure (EasySep™ Human T Cell Isolation Kit, Stemcell Technologies). T cells were dosed with mRNA-LNPs 3 days after activation with 500 ng of encapsulated mRNA per 125,000 cells. The LNP were CT10 compositions with an N/P of 8. Transfection efficiency (upper graph) and MFI (lower graph) were measured by flow cytometry 48 h after LNP addition.

[3] = LNP size and PDI by dynamic light scattering; format: physicochemical
Description: After the lipid particles were made as described supra, particle size (hydrodynamic diameter of the particles) was determined by Dynamic Light Scattering (DLS) using a ZetaSizer™ Nano ZS™ (Malvern Instruments, UK). He/Ne laser tuned to 633 nm wavelength was used as the light source. Data were measured from the scattered intensity data conducted in backscattering detection mode (measurement angle=173). Measurements were an average of 10 runs of two cycles each per sample. Z-Average size was reported as the particle size, and is defined as the harmonic intensity averaged particle diameter.
(§1) Physical characteristics of lipid nanoparticle (LNP) compositions comprising compounds according to Formula (I) and that were manufactured on the NanoAssemblr® Spark and Benchtop, are shown in Tables 6 and 7 below. Size, size variation of the LNP (PDI), encapsulation efficiency, and pKa are shown. The physical characteristics of these LNP are important from a standpoint of stability, biodistribution, and cell membrane crossing. There was good encapsulation in all the formulations, with polydispersity (PDI) under 0.3. Size and PDI were measured using dynamic light scattering techniques, and nucleic acid encapsulation efficiency was calculated from a modified Quant-iT RiboGreen RNA assay.

[4] = Nucleic acid encapsulation efficiency by RiboGreen assay; format: physicochemical
Description: Messenger RNA or plasmid NAT was diluted using sodium acetate buffer to the required concentration. Lipid nucleic acid particle samples were then prepared by running both fluids using the NanoAssemblr® Spark instrument. […] The lipid nucleic acid particles made in the instrument were immediately diluted down with 48 μL Ca and Mg free 1×PBS at pH 7.4 in the aqueous output well. These nucleic acid lipid particles were immediately collected into microcentrifuge tubes containing 96 μL of Ca and Mg free 1×PBS at pH 7.4. Encapsulation efficiency was measured by a modified Ribogreen™ assay (Quanti-iT RiboGreen™ RNA assay kit, Fisher). Observed particle attributes were generally sized from 60-200 nm for mRNA, depending on lipid composition and method of production.
as §1

[5] = Table 1, formulated lipid nanoparticles, TNS assay, read-out: Exp. pKa
[6] = Table 6, GFP-encoded LNPs, CT10, N/P 8
[7] = Table 7, EPO mRNA LNPs, LM02, N/P 6

| SMILES | pKa [1, 5] | pKa ([1]; Table 8, read-out: Exp.pKa) | Diameter (Z. ave, nm) [3, 7] [nm] | Polydispersity Index (PDI) [3, 7] | Encapsulation Efficiency (%) [4, 7] [%] | also measured |
| --- | --- | --- | --- | --- | --- | --- |
| CCCCCCCCC(CCCCCC)C(=O)O[C@@H]1[C@@H](OC(=O)C(CCCCCC)CCCCCCCC)CO[C@@H]1COC(=O)CCN(C)C (mixture of isomers) [PNI 535] | 4.99 | 4.99 | 54.2 | 0.11 | 82.2 | GFP Protein expression score: Human T cell [2]: Not Active; Diameter (Z. ave, nm) [3, 6]: 133.1 nm; Polydispersity Index (PDI) [3, 6]: 0.07; Encapsulation Efficiency (%) [4, 6]: 91.7% |
| CCCCC/C=C\C/C=C\CCCCCCCC(=O)O[C@@H]1[C@@H](OC(=O)CCCCCCC/C=C\C/C=C\CCCCC)CO[C@@H]1COC(=O)CCCCN(C)C (racemic) [PNI 122] | 7.45 | 7.45 | 102.4 | 0.15 | 99.3 | GFP Protein expression score: Human T cell [2]: Toxic |
| CCCCCCCCC(CCCCCC)C(=O)O[C@@H]1[C@@H](OC(=O)C(CCCCCC)CCCCCCCC)CO[C@@H]1COC(=O)CCCN(C)C (stereo in doubt) [PNI 580] | 5.69 |  |  |  |  |  |
| CCCCC/C=C\C/C=C\CCCCCCCC(=O)O[C@H]1COC(COC(=O)C23CCN(CC2)CC3)[C@@H]1OC(=O)CCCCCCC/C=C\C/C=C\CCCCC (stereo in doubt) [PNI 573] | 7.79 |  |  |  |  |  |
| CCCCCC/C=C\COC(=O)CCCCCCC(=O)O[C@@H]1[C@@H](OC(=O)CCCCCCC(=O)OC/C=C\CCCCCC)CO[C@@H]1COC(=O)CCN(C)C [PNI 532] | 5.97 | 5.97 | 144.3 | 0.15 | 37.3 |  |
| CCCCC/C=C\C/C=C\CCCCCCCC(=O)O[C@@H]1[C@@H](OC(=O)CCCCCCC/C=C\C/C=C\CCCCC)CO[C@@H]1COC(=O)CCN(C)C (racemic) [PNI 321] | 5.62 | 5.62 | 60.0 | 0.09 | 94.9 | Diameter (Z. ave, nm) [3, 6]: 68.6 nm; Polydispersity Index (PDI) [3, 6]: 0.07; Encapsulation Efficiency (%) [4, 6]: 92.4% |
| CCCCCCCCC(CCCCCC)C(=O)O[C@@H]1[C@@H](OC(=O)C(CCCCCC)CCCCCCCC)CO[C@@H]1COC(=O)C1(C)CCN(C)CC1 (stereo in doubt) [PNI 579] | 5.32 |  |  |  |  |  |
| CC/C=C\CC1C(CC(=O)OCCC(CCCCCCCC)OC(=O)C(CCCCCC)CCCCCCCC)CCC1OC(=O)C1(C)CCN(C)CC1 (stereo not shown) [PNI-565] |  |  |  |  |  | amount of protein produced (MFIs) compared with MC3 [2]: better than MC3 |
| CCCCC/C=C\C/C=C\CCCCCCCC(=O)O[C@@H]1[C@@H](OC(=O)CCCCCCC/C=C\C/C=C\CCCCC)CO[C@@H]1COC(=O)Cc1cn(C)cn1 (racemic) [PNI 336] | 4.57 | 4.57 | 64.3 | 0.06 | 89.8 | Diameter (Z. ave, nm) [3, 6]: 79.6 nm; Polydispersity Index (PDI) [3, 6]: 0.07; Encapsulation Efficiency (%) [4, 6]: 86.6% |

More lines, main results first:

| pKa [1, 5] | pKa ([1]; Table 8, read-out: Exp.pKa) | Diameter (Z. ave, nm) [3, 7] [nm] | Polydispersity Index (PDI) [3, 7] | Encapsulation Efficiency (%) [4, 7] [%] | SMILES | also measured |
| --- | --- | --- | --- | --- | --- | --- |
| 6.66 |  |  |  |  | CCCCC/C=C\C/C=C\CCCCCCCC(=O)O[C@H]1COC(COC(=O)CN2CCN(C)CC2)[C@@H]1OC(=O)CCCCCCC/C=C\C/C=C\CCCCC (mixture of isomers) [PNI 574] |  |
| 6.93 | 6.93 |  |  |  | CCCCCCCCCCCCCC(=O)O[C@@H]1[C@@H](OC(=O)CCCCCCCCCCCCC)CO[C@@H]1COC(=O)CCN(C)C [PNI 344] |  |
| 4.24 |  |  |  |  | CCCCCCCCC1CC1CCCCCCCC(=O)O[C@@H]1[C@@H](OC(=O)CCCCCCCC2CC2CCCCCCCC)CO[C@@H]1COC(=O)C1CCN(C2CC2)CC1 (stereo in doubt) [PNI 576] |  |
| 6.45 |  |  |  |  | CCCCCCCCC1CC1CCCCCCCC(=O)O[C@@H]1[C@@H](OC(=O)CCCCCCCC2CC2CCCCCCCC)CO[C@@H]1COC(=O)C1CCN(CC)CC1 (stereo in doubt) [PNI 577] |  |
| 6.42 | 5.97 | 75.0 | 0.15 | 89.4 | CCCCCCCCCCCC(=O)O[C@@H]1[C@@H](OC(=O)CCCCCCCCCCC)CO[C@@H]1COC(=O)CCN(C)C (racemic) [PNI 534] | Diameter (Z. ave, nm) [3, 6]: 107.1 nm; Polydispersity Index (PDI) [3, 6]: 0.29; Encapsulation Efficiency (%) [4, 6]: 49.3% |
| 6.11 | 6.11 | 58.2 | 0.04 | 97.2 | CCCCCCCCC1CC1CCCCCCCC(=O)O[C@@H]1[C@@H](OC(=O)CCCCCCCC2CC2CCCCCCCC)CO[C@@H]1COC(=O)CCN(C)C (mixture of isomers) [PNI 342] |  |
| 5.87 |  |  |  |  | CCCCCCCCC1CC1CCCCCCCC(=O)O[C@@H]1[C@@H](OC(=O)CCCCCCCC2CC2CCCCCCCC)CO[C@@H]1COC(=O)CC1CCCCN1C (stereo in doubt) [PNI 578] |  |
| 7.71 | 7.7 |  |  |  | CCCCCCCCCCCCCC(=O)O[C@@H]1[C@@H](OC(=O)CCCCCCCCCCCCC)CO[C@@H]1COC(=O)CCCCN(C)C (racemic) [PNI 120] | GFP Protein expression score: Human T cell [2]: Toxic |
| 5.51 |  |  |  |  | CCCCC/C=C\C/C=C\CCCCCCCC(=O)O[C@H]1COC(COC(=O)C2CCCN(C)C2)[C@@H]1OC(=O)CCCCCCC/C=C\C/C=C\CCCCC (stereo in doubt) [PNI 575] |  |
| 6.46 | 6.46 | 73.8 | 0.06 | 97.1 | CCCCCCCCC1CC1CCCCCCCC(=O)O[C@@H]1[C@@H](OC(=O)CCCCCCCC2CC2CCCCCCCC)CO[C@@H]1COC(=O)C1(C)CCN(C)CC1 (mixture of isomers) [PNI 541] | amount of protein produced (MFIs) compared with MC3 [2]: better than MC3; protein expression (GFP MFI) compared with MC3 ([2]; FIG. 5, CT10, N/P 8, 500 ng mRNA per 125,000 cells, 3 days after activation, 48 h): higher levels of protein expression than MC3; amount of protein produced (MFI) in human T cells compared with MC3 ([2]; summary): better than MC3; Diameter (Z. ave, nm) [3, 6]: 109.4 nm; Polydispersity Index (PDI) [3, 6]: 0.28; Encapsulation Efficiency (%) [4, 6]: 73.5% |
| 6.79 | 6.79 | 67.0 | 0.11 | 98.7 | CCCCC/C=C\C/C=C\CCCCCCCC(=O)O[C@@H]1[C@@H](OC(=O)CCCCCCC/C=C\C/C=C\CCCCC)CO[C@@H]1COC(=O)CC1CCN(C)C1 (mixture of isomers) [PNI 538] |  |
